Measurements from patent US4914125A, “(S)-emopamil for the treatment of migraine” (priority 1988, dated 1990).

Key:
blood/brain barrier [1] = assay: brain uptake index (BUI) after injection into the common carotid artery of the anesthetized rat, single passage through the cerebral capillaries; details: [14C]-labeled test substance, [3H]-labeled water as internal standard, HEPES-buffered Ringer solution pH=7.35, anesthetized rat
Description: (§1) The calculated BUI values indicate the cerebral uptake as a percentage of the water uptake.

serotonin [2] = assay: serotonin-antagonistic action on oral administration; assay type: in vivo; details: (S)-emopamil vs verapamil
[3] = system: increase in blood pressure induced by serotonin; assay: inhibition of the increase in blood pressure induced by serotonin in the pithed rat on intravenous administration; assay type: in vivo, rat (male Sprague-Dawley); details: for ED50: iv, serotonin 0.0215 mg/kg i.v., read-out: ED 50% (dose which inhibits the increase in blood pressure due to serotonin by 50%)
Description: The pithing is carried out by a rod through the orbit. […] The criterion of an action of a substance is the relative inhibition (δ-%) of the increase in blood pressure induced by serotonin (δmm Hg). The quantitative evaluation is by analysis of the linear regression (y =a+b x) between log dose (mg/kg) and relative inhibition (δ%) of the increase in blood pressure due to serotonin.

blood/brain barrier [4] = details: rat, in vivo
Description: as §1

serotonin [5] = details: by comparison with known serotonin antagonists; cited from earlier work

SMILES	BUI value (cerebral uptake as a percentage of the water uptake) (blood/brain barrier [1])	superiority to verapamil in the serotonin-antagonistic action (factor) (serotonin [2])	antiserotonin action (in words) ([3]; compared with known serotonin antagonists and verapamil)	ED50 ([3]; pithed rat, i.v.)	serotonin-antagonistic action relative to verapamil (times) ([3]; pithed rat, i.v., (S)-emopamil vs verapamil)	passage of the blood/brain barrier (in words) (blood/brain barrier [4])	serotonin-antagonistic action (in words) (serotonin [5])
CC(C)[C@@](C#N)(CCCN(C)CCc1ccccc1)c1ccccc1 [(S)-Emopamil, 2-isopropyl-5-(methyl-phenethylamino)-2-phenylvaleronitrile]	110%	4.6	reaches the potency of known serotonin antagonists and exceeds by a multiple that of the comparison compound verapamil	0.02 mg/kg	18 times	passes the blood/brain barrier more rapidly and in considerably larger amounts than does verapamil	
COc1ccc(CCN(C)CCCC(C#N)(c2ccc(OC)c(OC)c2)C(C)C)cc1OC (centres unmarked) [Verapamil, reference compound]				0.36 mg/kg			weak by comparison with known serotonin antagonists
